# Molecular target: T1, Chk1 (Homo sapiens, UniProt O14757)
# T1 construct: purchased Upstate Biotechnology
# T1 sequence (O14757 1-476): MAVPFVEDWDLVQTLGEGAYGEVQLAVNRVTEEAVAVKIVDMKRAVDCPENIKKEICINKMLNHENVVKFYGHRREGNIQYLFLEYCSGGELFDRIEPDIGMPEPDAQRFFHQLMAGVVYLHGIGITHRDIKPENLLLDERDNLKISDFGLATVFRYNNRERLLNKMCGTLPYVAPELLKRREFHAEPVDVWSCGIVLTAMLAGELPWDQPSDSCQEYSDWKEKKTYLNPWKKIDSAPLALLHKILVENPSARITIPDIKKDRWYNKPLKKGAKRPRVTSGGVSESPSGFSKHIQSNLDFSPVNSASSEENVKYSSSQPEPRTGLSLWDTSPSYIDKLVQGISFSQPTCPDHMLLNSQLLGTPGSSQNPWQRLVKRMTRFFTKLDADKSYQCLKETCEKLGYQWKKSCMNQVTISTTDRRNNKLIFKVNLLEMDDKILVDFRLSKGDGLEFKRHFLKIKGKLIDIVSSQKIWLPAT
# Assay: Chk1 kinase assay: incorporation of γ-33P ATP into immobilized myelin basic protein
# Format: biochemical
# Conditions: Table 11, Chk1 only; class symbols A-D; read-out: Chk1 IC50
# Summary of the method: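 Immobilized-MBP radiometric kinase assay, room temperature for 1 h; ATP 10 μM (Chk1, 10 nM enzyme) or 30 μM (Chk2, 20 nM enzyme) with 33P tracer. Values are IC50s, with Ki derived from them.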
row,IC50 [µM],SMILES
1,< 0.05,"Nc1ncc(-c2cccc(C(=O)NCc3cc(F)cc(F)c3)c2)nc1C(=O)N[C@H]1CCCNC1 [Example 868, 3-amino-6-[3-({[(3,5-difluorophenyl)methyl]amino}carbonyl)phenyl]-N-[(3S)-piperidin-3-yl]pyrazine-2-carboxamide]"
2,< 0.05,"COc1cc(CNC(=O)c2cccc(-c3cnc(N)c(C(=O)N[C@H]4CCCNC4)n3)c2)cc(OC)c1 [Example 1041, 3-amino-6-{3-[({[3,5-bis(methyloxy)phenyl]methyl}amino)carbonyl]phenyl}-N-[(3S)-piperidin-3-yl]pyrazine-2-carboxamide]"
3,0.05 to 1,"Nc1ncc(-c2cccc(CNS(=O)(=O)c3ccc4cccnc4c3)c2)nc1C(=O)N[C@H]1CCCNC1 [Example 907, 3-amino-N-[(3S)-piperidin-3-yl]-6-(3-{[(quinolin-7-ylsulfonyl)amino]methyl}phenyl)pyrazine-2-carboxamide]"
4,< 0.05,"Cc1ccc(Cl)cc1CNC(=O)c1cccc(-c2cnc(N)c(C(=O)N[C@H]3CCCNC3)n2)c1 [Example 993, 3-amino-6-[3-({[(5-chloro-2-methylphenyl)methyl]amino}carbonyl)phenyl]-N-[(3S)-piperidin-3-yl]pyrazine-2-carboxamide]"
5,< 0.05,"Nc1ncc(-c2cccc(C(=O)NCc3cc(Cl)cc(Cl)c3)c2)nc1C(=O)N[C@H]1CCCNC1 [Example 952, 3-amino-6-[3-({[(3,5-dichlorophenyl)methyl]amino}carbonyl)phenyl]-N-[(3S)-piperidin-3-yl]pyrazine-2-carboxamide]"

# Same assay, conditions: Table 11; Chk1 only; read-out: Chk1 IC50
row,SMILES,IC50 [µM]
1,"CCNNC(=N)c1nc(-c2cccc(C(=O)NC3CCc4ccccc43)c2)cnc1N (centres unmarked) [Example 718, 3-{5-amino-6-[(2-ethylhydrazino)(imino)methyl]pyrazin-2-yl}-N-(2,3-dihydro-1H-inden-1-yl)benzamide]",1 to 10
2,"CNC(=O)c1nc(-c2cccc(CN[C@H]3CCc4c(F)cccc43)c2)cnc1N [Example 482, 3-amino-6-[3-({[(1S)-4-fluoro-2,3-dihydro-1H-inden-1-yl]amino}methyl)phenyl]-N-methylpyrazine-2-carboxamide]",< 0.05

# Next, values leading:
row,IC50 [µM],SMILES
1,0.05 to 1,"Nc1ncc(-c2cccc(CN[C@H]3CCc4ccccc43)c2)nc1C(=O)NCC1CC1 [Example 543, 3-amino-N-(cyclopropylmethyl)-6-(3-{[(1S)-2,3-dihydro-1H-inden-1-ylamino}methyl}phenyl)pyrazine-2-carboxamide]"
2,0.05 to 1,"CNC(=O)c1nc(-c2cccc([C@H](C)N[C@H]3CCc4ccccc43)c2)cnc1N [Example 750, 3-amino-6-(3-{(1S)-1-[(1S)-2,3-dihydro-1H-inden-1-ylamino]ethyl}phenyl)-N-methylpyrazine-2-carboxamide]"
3,≥ 10,"C/C(=N\Nc1ccc(OC(F)(F)F)cc1)c1nc(-c2cccc(C(=O)NCc3ccccc3)c2)cnc1N [Example 634, 3-[5-amino-6-((1E)-N-{4-[(trifluoromethyl)oxy]phenyl}ethanehydrazonoyl)pyrazin-2-yl]-N-(phenylmethyl)benzamide]"
4,≥ 10,"CCNc1ncc(-c2cccc(C(=O)NCc3ccccc3)c2)nc1C(=O)N[C@H]1CCN(CC)C1 [Example 699, 3-(ethylamino)-N-[(3S)-1-ethylpyrrolidin-3-yl]-6-(3-{[(phenylmethyl)amino]carbonyl}phenyl)pyrazine-2-carboxamide]"
5,≥ 10,"CN/N=C(\C)c1nc(-c2cccc(C(=O)NCc3ccccc3)c2)cnc1N [Example 638, 3-{5-amino-6-[(1E)-N-methylethanehydrazonoyl]pyrazin-2-yl}-N-(phenylmethyl)benzamide]"

# Same assay, conditions: read-out: Chk1 IC50
row,SMILES,IC50 [µM]
1,"CNC(=O)c1nc(-c2cccc(C(=O)N[C@H]3CCC[C@@H]3OCc3ccccc3)c2)cnc1N [Example 164, 3-amino-N-methyl-6-{3-[({(1S,2S)-2-[(phenylmethyl)oxy]cyclopentyl}amino)carbonyl]phenyl}pyrazine-2-carboxamide]",0.05 to 1
2,"CNC(=O)c1nc(-c2cccc(CNCc3ccc(Cl)cc3F)c2)cnc1N [Example 425, 3-amino-6-[3-({[(4-chloro-2-fluorophenyl)methyl]amino}methyl)phenyl]-N-methylpyrazine-2-carboxamide]",0.05 to 1
3,"CCN1CCN(CCOc2cccc(-c3cnc(N)c(C(=O)NC)n3)c2)CC1 [Example 190, 3-amino-6-(3-{[2-(4-ethylpiperazin-1-yl)ethyl]oxy}phenyl)-N-methylpyrazine-2-carboxamide]",0.05 to 1
4,"CNC(=O)c1nc(-c2cccc(C(=O)NCc3c(F)cccc3F)c2)cnc1N [Example 338, 3-amino-6-[3-({[(2,6-difluorophenyl)methyl]amino}carbonyl)phenyl]-N-methylpyrazine-2-carboxamide]",0.05 to 1
5,"CNC(=O)c1nc(-c2cccc(C(=O)NCc3ccccc3-c3ccccc3)c2)cnc1N [Example 180, 3-amino-6-(3-{[(biphenyl-2-ylmethyl)amino]carbonyl}phenyl)-N-methylpyrazine-2-carboxamide]",< 0.05
6,"CNC(=O)c1nc(-c2cccc(NC(=O)c3ccc(C#N)cc3)c2)cnc1N [Example 167, 3-amino-6-(3-{[(4-cyanophenyl)carbonyl]amino}phenyl)-N-methylpyrazine-2-carboxamide]",0.05 to 1
7,"CNC(=O)c1nc(-c2cccc(C(=O)N[C@H](C)c3ccccc3)c2)cnc1N [Example 144, 3-amino-N-methyl-6-[3-({[(1R)-1-phenylethyl]amino}carbonyl)phenyl]pyrazine-2-carboxamide]",1 to 10
8,"CNC(=O)c1nc(-c2cccc(C(=O)NCc3ccc(F)c(C(F)(F)F)c3)c2)cnc1N [Example 228, 3-amino-6-{3-[({[4-fluoro-3-(trifluoromethyl)phenyl]methyl}amino)carbonyl]phenyl}-N-methylpyrazine-2-carboxamide]",0.05 to 1
9,"Nc1ncc(-c2cccc(C(=O)NCc3ccccc3)c2)nc1C(=O)NC1CC1 [Example 270, 3-amino-N-cyclopropyl-6-(3-{[(phenylmethyl)amino]carbonyl}phenyl)pyrazine-2-carboxamide]",1 to 10

# The remaining lines, values ahead:
row,IC50 [µM],SMILES
1,0.05 to 1,"CNC(=O)c1nc(-c2cccc(-c3nc4ccccc4[nH]3)c2)cnc1N [Example 407, 3-amino-6-[3-(1H-benzimidazol-2-yl)phenyl]-N-methylpyrazine-2-carboxamide]"
2,0.05 to 1,"CNC(=O)c1nc(-c2cccc(C(=O)NCc3ccc(O)c(OC)c3)c2)cnc1N [Example 244, 3-amino-6-{3-[({[4-hydroxy-3-(methyloxy)phenyl]methyl}amino)carbonyl]phenyl}-N-methylpyrazine-2-carboxamide]"
3,1 to 10,"CNC(=O)c1nc(-c2cccc(C(=O)NCc3c(OC)cccc3OC)c2)cnc1N [Example 249, 3-amino-6-{3-[({[2,6-bis(methyloxy)phenyl]methyl}amino)carbonyl]phenyl}-N-methylpyrazine-2-carboxamide]"
4,1 to 10,"CNC(=O)c1nc(-c2cccc(-c3noc(CCc4ccccc4)n3)c2)cnc1N [Example 138, 3-amino-N-methyl-6-{3-[5-(2-phenylethyl)-1,2,4-oxadiazol-3-yl]phenyl}pyrazine-2-carboxamide]"
5,0.05 to 1,"CNC(=O)c1nc(-c2cccc(C(=O)NCc3cccc(OCCN4CCOCC4)c3)c2)cnc1N [Example 342, 3-amino-N-methyl-6-(3-{[({3-[(2-morpholin-4-ylethyl)oxy]phenyl}methyl)amino]carbonyl}phenyl)pyrazine-2-carboxamide]"

# Source: patent US7704995B2 (Exelixis, Inc., priority 2003, dated 2010)
